Laboratory results published in patent US20240390471A1, “COMPOUNDS AND ADJUVANT FORMULATIONS USEFUL IN PNEUMOCOCCAL VACCINES” (Merck Sharp & Dohme LLC, priority 2023, published 2024).

How the values were obtained:
human TLR7 = molecular target: T1, human TLR7 (Homo sapiens, UniProt Q9NYK1); assay: Cell-based TLR 7/8 assay, HEK-Blue TLR7 cells (SEAP reporter); conditions: based on Compound concentration only; Compounds formulated as SNEs; read-out: huTLR7 EC50 (converted)
T1 construct: host or cells: HEK-Blue 293 cells expressing human TLR7
T1 sequence (Q9NYK1 27-1049): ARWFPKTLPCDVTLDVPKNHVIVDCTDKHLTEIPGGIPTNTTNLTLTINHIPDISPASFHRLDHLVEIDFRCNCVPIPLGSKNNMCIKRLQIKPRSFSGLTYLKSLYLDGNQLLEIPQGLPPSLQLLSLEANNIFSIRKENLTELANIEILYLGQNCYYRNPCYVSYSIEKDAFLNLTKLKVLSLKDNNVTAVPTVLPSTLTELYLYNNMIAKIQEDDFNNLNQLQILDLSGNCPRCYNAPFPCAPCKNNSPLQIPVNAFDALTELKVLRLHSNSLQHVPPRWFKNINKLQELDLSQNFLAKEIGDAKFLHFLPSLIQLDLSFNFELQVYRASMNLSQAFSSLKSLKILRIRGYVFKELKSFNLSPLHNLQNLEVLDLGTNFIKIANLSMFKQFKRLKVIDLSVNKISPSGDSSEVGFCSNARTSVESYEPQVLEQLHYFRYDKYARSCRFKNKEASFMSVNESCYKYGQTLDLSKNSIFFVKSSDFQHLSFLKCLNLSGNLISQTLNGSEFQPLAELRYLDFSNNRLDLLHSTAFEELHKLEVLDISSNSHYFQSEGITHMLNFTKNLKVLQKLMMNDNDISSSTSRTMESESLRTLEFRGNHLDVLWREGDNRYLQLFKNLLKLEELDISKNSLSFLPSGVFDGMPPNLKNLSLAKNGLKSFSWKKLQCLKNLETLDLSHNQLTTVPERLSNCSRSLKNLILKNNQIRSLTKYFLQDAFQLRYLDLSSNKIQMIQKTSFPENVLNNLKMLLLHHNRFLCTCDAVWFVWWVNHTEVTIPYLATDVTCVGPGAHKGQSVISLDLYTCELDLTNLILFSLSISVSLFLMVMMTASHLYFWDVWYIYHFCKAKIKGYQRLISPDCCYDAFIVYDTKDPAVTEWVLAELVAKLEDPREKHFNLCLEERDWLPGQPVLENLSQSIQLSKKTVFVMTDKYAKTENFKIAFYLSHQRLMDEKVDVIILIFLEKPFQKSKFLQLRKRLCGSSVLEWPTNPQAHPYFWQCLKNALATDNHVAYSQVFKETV
Method: (§1) HEK-Blue™ TLR7 and TLR8 cells (InvivoGen) were designed to assess the stimulation of TLR7 and TLR8 by monitoring the activation of NF-κB and AP-1. Compound B-1-SNE samples were diluted 1:2 across an 8-point titration in diluent buffer histidine/PS-20 in a sterile V-bottom plate. 20 μL of samples were transferred to corresponding wells of two flat bottom assay plates. Media was aspirated from HEK-Blue™ human TLR 7 and TLR 8 cells (T-75 flasks) and gently rinsed with pre-warmed (37° C.) DPBS for a total volume of 5 mL/flask. The DPBS was gently removed from the cells and cells were gently manually dislodged and resuspended in 2 mL of DPBS. Cell assay suspensions were then prepared at approximately 2.2×10^5 cells per mL of HEK-Blue™ detection medium (InvivoGen). 180 μL of cell suspension in detection medium was added to each well of the two flat bottom assay plates containing the diluted Compound B-1-SNE samples for a final dilution of sample equaling 1:10 (180 μL of cell suspension in detection medium and 20 μL of sample). The cells were then incubated at 37° C. in 5% CO2 for 20 hrs. The reporter gene, NF-Kb, induces the production of secreted embryonic alkaline phosphatase (SEAP) when stimulated and can be monitored using the vendor supplied SEAP detection kit. SEAP colorimetric changes were read at an absorbance of 640 nm using a SpectroMax Stakmax plate reader. […] EC50 values were calculated based on total Compound B-1-SNE concentration using GraphPad Prism Software and analyzed using agonist vs. response variable slope (four parameters) least squares fit.
(§2) Further to the description in Example 10, a cell-based activation system was used to assess activity of the Compound-formulated nanoemulsion systems, prepared as described in examples, supra. HEK-Blue™ TLR7 and TLR8 cells (InvivoGen) were designed to assess the stimulation of TLR7 and TLR8 by monitoring the activation of NF-κB and AP-1. Compound-SNE samples were diluted 1:2 across an 8-point titration in diluent buffer histidine/PS-20 in a sterile V-bottom plate. 20 μL of samples were transferred to corresponding wells of two flat bottom assay plates. Media was aspirated from HEK-Blue™ human TLR 7 and TLR 8 cells (T-75 flasks) and gently rinsed with pre-warmed (37° C.) DPBS for a total volume of 5 mL/flask. The DPBS was gently removed from the cells and cells were gently manually dislodged and resuspended in 2 mL of DPBS. Cell assay suspensions were then prepared at approximately 2.2×10^5 cells per mL of HEK-Blue™ detection medium (InvivoGen). 180 μL of cell suspension in detection medium was added to each well of the two flat bottom assay plates containing the diluted Compound-SNE samples for a final dilution of sample equaling 1:10 (180 μL of cell suspension in detection medium and 20 μL of sample). The cells were then incubated at 37° C. in 5% CO2 for 20 hrs. The reporter gene, NF-Kb, induces the production of secreted embryonic alkaline phosphatase (SLAP) when stimulated and can be monitored using the vendor supplied SLAP detection kit. SLAP colorimetric changes were read at an absorbance of 640 nm using a SpectroMax Stakmax plate reader. EC50s were calculated based on Compound concentration only, not total Compound-SNE concentration (Table 6) using GraphPad Prism Software and analyzed using agonist vs. response variable slope (four parameters) least squares fit.

human TLR8 = molecular target: T2, human TLR8 (Homo sapiens, UniProt Q9NR97); assay: Cell-based TLR 7/8 assay, HEK-Blue TLR8 cells (SEAP reporter); conditions: based on Compound concentration only; Compounds formulated as SNEs; read-out: huTLR8 EC50 (converted)
T2 construct: host or cells: HEK-Blue 293 cells expressing human TLR8
T2 sequence (Q9NR97 27-1041): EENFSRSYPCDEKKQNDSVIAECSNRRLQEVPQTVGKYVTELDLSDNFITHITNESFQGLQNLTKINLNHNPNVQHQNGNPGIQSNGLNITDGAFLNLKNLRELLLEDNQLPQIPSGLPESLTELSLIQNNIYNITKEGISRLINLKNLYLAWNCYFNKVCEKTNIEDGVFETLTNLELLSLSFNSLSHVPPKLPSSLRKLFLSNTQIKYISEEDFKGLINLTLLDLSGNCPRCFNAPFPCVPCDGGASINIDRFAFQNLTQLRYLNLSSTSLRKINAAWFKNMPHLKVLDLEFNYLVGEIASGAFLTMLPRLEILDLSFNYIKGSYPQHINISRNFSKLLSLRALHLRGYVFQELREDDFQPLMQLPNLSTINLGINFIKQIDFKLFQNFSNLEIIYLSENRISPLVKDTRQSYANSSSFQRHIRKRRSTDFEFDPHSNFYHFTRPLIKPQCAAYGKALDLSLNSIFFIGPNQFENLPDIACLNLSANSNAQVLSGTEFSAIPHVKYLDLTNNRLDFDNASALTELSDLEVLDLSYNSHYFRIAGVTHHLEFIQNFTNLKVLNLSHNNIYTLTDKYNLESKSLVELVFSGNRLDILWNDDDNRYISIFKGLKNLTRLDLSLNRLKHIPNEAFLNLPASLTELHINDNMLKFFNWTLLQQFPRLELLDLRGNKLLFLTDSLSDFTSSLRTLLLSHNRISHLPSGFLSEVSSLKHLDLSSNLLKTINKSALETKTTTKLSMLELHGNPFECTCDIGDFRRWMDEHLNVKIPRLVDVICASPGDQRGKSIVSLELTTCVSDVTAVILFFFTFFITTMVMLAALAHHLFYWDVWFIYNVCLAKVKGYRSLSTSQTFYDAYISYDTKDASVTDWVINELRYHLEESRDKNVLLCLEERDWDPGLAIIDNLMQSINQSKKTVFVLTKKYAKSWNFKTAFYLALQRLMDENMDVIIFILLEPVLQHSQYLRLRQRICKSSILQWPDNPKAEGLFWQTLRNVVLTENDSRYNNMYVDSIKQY
Method: as §1, §2

CCCCCCCCCCCCCCCCCC(=O)NCCC(=O)N1CCN(c2ccc(Cn3cc4nc(N)nc(NCCCC)c4n3)c(OC)c2)CC1 [Compound B-11, N-(3-(4-(4-((5-amino-7-(butylamino)-2H-pyrazolo[4,3-d]pyrimidin-2-yl)methyl)-3-methoxyphenyl)piperazin-1-yl)-3-oxopropyl)stearamide]
EC50 (human TLR7): 3070 nM
EC50 (human TLR8): 401 nM

CCCCCCCCCCCCCCCCCC(=O)NCCCCCCC(=O)N1CCN(c2ccc(Cn3cc4nc(N)nc(NCCCC)c4n3)c(OC)c2)CC1 [Compound B-12, N-(7-(4-(4-((5-amino-7-(butylamino)-2H-pyrazolo[4,3-d]pyrimidin-2-yl)methyl)-3-methoxyphenyl)piperazin-1-yl)-7-oxoheptyl)stearamide]
EC50 (human TLR7): 23400 nM
EC50 (human TLR8): 25500 nM

CCCCCCCCCCCCCCCCCC(=O)NC1CC(CC(=O)N2CCN(c3ccc(Cn4cc5nc(N)nc(NCCCC)c5n4)c(OC)c3)CC2)C1 (stereo not shown) [Compound B-13, N-(3-(2-(4-(4-((5-amino-7-(butylamino)-2H-pyrazolo[4,3-d]pyrimidin-2-yl)methyl)-3-methoxyphenyl)piperazin-1-yl)-2-oxoethyl)cyclobutyl)stearamide]
EC50 (human TLR7): 85900 nM
EC50 (human TLR8): 3020 nM

CCCCCCCCCCCCCCCCCC(=O)NCCCC(C)(C)C(=O)N1CCN(c2ccc(Cn3cc4nc(N)nc(NCCCC)c4n3)c(OC)c2)CC1 [Compound B-14, N-(5-(4-(4-((5-amino-7-(butylamino)-2H-pyrazolo[4,3-d]pyrimidin-2-yl)methyl)-3-methoxyphenyl)piperazin-1-yl)-4,4-dimethyl-5-oxopentyl)stearamide]
EC50 (human TLR7): 135000 nM
EC50 (human TLR8): 11900 nM

CCCCCCCCCCCCCCCCCC(=O)NCCCCC(=O)N1CCN(c2ccc(Cn3nc4c(NCCCC)nc(N)nc4c3C)c(OC)c2)CC1 [Compound B-18, N-(5-(4-(4-((5-amino-7-(butylamino)-3-methyl-2H-pyrazolo[4,3-d]pyrimidin-2-yl)methyl)-3-methoxyphenyl)piperazin-1-yl)-5-oxopentyl)stearamide]
EC50 (human TLR7): 316 nM
EC50 (human TLR8): 215 nM

CCCCC/C=C\C/C=C\CCCCCCCC(=O)NCCCCN(C)Cc1cc(OC)c(Cn2cc3nc(N)nc(NCCCC)c3n2)c(OC)c1 [Compound C-1, (9Z,12Z)—N-(4-((4-((5-amino-7-(butylamino)-2H-pyrazolo[4,3-d]pyrimidin-2-yl)methyl)-3,5-dimethoxybenzyl)(methyl)amino)butyl)octadeca-9,12-dienamide]
EC50 (human TLR7): 259 nM
EC50 (human TLR8): 95.5 nM

CCCCCCCCCCCCCC(=O)NCCCCN(C)Cc1cc(OC)c(Cn2cc3nc(N)nc(NCCCC)c3n2)c(OC)c1 [Compound C-2, N-(4-((4-((5-amino-7-(butylamino)-2H-pyrazolo[4,3-d]pyrimidin-2-yl)methyl)-3,5-dimethoxybenzyl)(methyl)amino)butyl)tetradecanamide]
EC50 (human TLR7): 338 nM
EC50 (human TLR8): 176 nM

CCCCCCCC/C=C\CCCCCCCC(=O)NCCCCN(C)Cc1cc(OC)c(Cn2cc3nc(N)nc(NCCCC)c3n2)c(OC)c1 [Compound C-3, N-(4-((4-((5-amino-7-(butylamino)-2H-pyrazolo[4,3-d]pyrimidin-2-yl)methyl)-3,5-dimethoxybenzyl)(methyl)amino)butyl)oleamide]
EC50 (human TLR7): 503 nM
EC50 (human TLR8): 163 nM

CCCCCCCCCCCCCCCCCC(=O)NCCCCN(C)Cc1cc(OC)c(Cn2cc3nc(N)nc(NCCCC)c3n2)c(OC)c1 [Compound C-4, N-(4-((4-((5-amino-7-(butylamino)-2H-pyrazolo[4,3-d]pyrimidin-2-yl)methyl)-3,5-dimethoxybenzyl)(methyl)amino)butyl)stearamide]
EC50 (human TLR7): 4950 nM
EC50 (human TLR8): 1170 nM

CCCCCCCCCCCCCCCCCC(=O)NCCCC(=O)N(C)Cc1cc(OC)c(Cn2cc3nc(N)nc(NCCCC)c3n2)c(OC)c1 [Compound C-5, N-(4-((4-((5-amino-7-(butylamino)-2H-pyrazolo[4,3-d]pyrimidin-2-yl)methyl)-3,5-dimethoxybenzyl)(methyl)amino)-4-oxobutyl)stearamide]
EC50 (human TLR7): 639 nM
EC50 (human TLR8): 93.2 nM

CCCCC/C=C\C/C=C\CCCCCCCCC(CCCCCCCC/C=C\C/C=C\CCCCC)OC(=O)NCCCCN(C)Cc1cc(OC)c(Cn2cc3nc(N)nc(NCCCC)c3n2)c(OC)c1 [Compound D-1, (6Z,9Z,28Z,31Z)-heptatriaconta-6,9,28,31-tetraen-19-yl (4-((4-((5-amino-7-(butylamino)-2H-pyrazolo[4,3-d]pyrimidin-2-yl)methyl)-3,5-dimethoxybenzyl)(methyl)amino)butyl)carbamate]
EC50 (human TLR7): 17200 nM
EC50 (human TLR8): 155000 nM
